Assay results from patent US9585388B2, “Synergistically acting ternary antimicrobial mixtures” (SYMRISE AG, priority 2011, dated 2017).

Each molecule was assayed on Aspergillus niger ATCC 16404 (assay: Test for adequate preservation (European Pharmacopoeia) in O/W emulsion, CFU reduction). Conditions: total concentration used 1 wt % in O/W emulsion, pH 5.5, initial CFU 1200000.
Assay type: cell-based
From the text: In case of doubt, antimicrobial efficacy in the sense of this text is present when adequate preservation is established according to the European Pharmacopoeia (ISBN 3-7692-2768-9; Supplement 2001 to the 3rd Edition, page 421-422, chapter 5.1.3). The microbe preferably to be used is preferably Aspergillus niger ATCC16404. For further information on the procedure for testing for antimicrobial efficacy, reference is made in particular to example 1 given below.
Synergistic intensification (of antimicrobial action) is present when the synergy index (SI value) of the test mixture according to Kull (literature: F. C. Kull et al., Applied Microbiology Vol. 9, p. 538-541 (1961); D. C. Steinberg, Cosmetics & Toiletries Vol. 115(11), 59-62 (2000)) gives a value <1. For further information on calculation of the synergy index, reference is again made to example 1 given below. Once again, the microbe preferably to be used for determining the synergy index is the strain of Aspergillus niger stated above.
The test for adequate preservation was carried out according to the European Pharmacopoeia. […]
To determine the potentially synergistically intensified efficacy of ternary mixtures containing 2-phenoxyethanol, 1,2-decanediol and 1,2-hexanediol, the CFU-reducing properties were determined according to the test procedure described in example 1 for the individual substances, for various binary mixtures and for ternary mixtures according to the invention.
The synergy index (SI values) of the ternary mixtures according to the invention and binary mixtures not according to the invention according to Kull (literature: F. C. Kull et al., Applied Microbiology Vol. 9, p. 538-541 (1961); D. C. Steinberg, Cosmetics & Toiletries Vol. 115(11), 59-62 (2000) was calculated using the following equations. SI=Z*D/A+Z*E/B Binary mixtures: SI=Z*D/A+Z*E/B+Z*F/C Ternary mixture: wherein: D, E, F: factor of proportion of the individual constituents (e.g. 70 wt %=factor 0.70) A, B, C: CFU of the individual substances at time point 48 h Z: CFU of the binary/ternary mixture at time point 48 h […]

Question: How did the “Aspergillus niger CFU after 48 h” value turn out when `CCCCCCCCC(O)CO` (stereo not drawn) [product B, 1,2-decanediol] was run?
Answer: 1200000 CFU

Question: For `OCCOc1ccccc1` [product A, 2-phenoxyethanol], which “Aspergillus niger CFU after 48 h” value is on record?
Answer: 1100000 CFU

Question: How did the “Aspergillus niger CFU after 48 h” value turn out when `CCCCC(O)CO` (stereo not drawn) [product C, 1,2-hexanediol] was run?
Answer: 1000000 CFU
